Measured values reported in publication PMC11149917, “Translational and Therapeutic Evaluation of RAS-GTP Inhibition by RMC-6236 in RAS-Driven Cancers” (Cancer Discovery, 2024).
pEC50: −log10 of the molar value. Read-outs that look alike come from different tables or passages of the source.

Key:
[1] = tested on: panel of 78 cancer cell lines; experiment: Cell panel 3D methylcellulose CellTiter-Glo proliferation; assay type: cell-based; conditions: Homo sapiens
Procedure: A panel of 78 cancer cell lines harboring mutant and wild-type RAS was selected for screening at Crown Bioscience (Supplementary Table S2). The panel consisted of cell lines with any substitution at position 12 of KRAS, cell lines with any substitutions at position 61 of NRAS, and cell lines with a BRAF^V600E mutation. […] Cells were incubated for 120 hours prior to measurement of adenosine triphosphate (ATP) levels using the CellTiter-Glo Luminescent Cell Viability Assay (CTG; Promega, G7572), a method of determining the number of metabolically active cells based on quantitation of cellular ATP, according to the manufacturer's instructions. To measure induction of apoptosis, cells were incubated with RMC-6236 for 48 hours prior to measuring cleavage of a proluminescent caspase-3/7 DEVD-aminoluciferin substrate using the CaspaseGlo-3/7 Assay (Promega, G8092) according to the manufacturer’s instructions.

[2] = tested on: eCT26 (Kras^G12C/G12C) tumors in NSG mice; experiment: Syngeneic model study, immune-deficient; assay type: in vivo, mouse; conditions: 25 mg/kg po qd
From the text: LU99 cells (JCRB0080) were stably modified with lentivirus-based pHBLV-CMV-MCS-EF1-fLuc-T2A-puro vector to generate luciferase-expressing LU99-Luc cells. NCI-H1373 cells (ATCC CRL-5866) were stably modified with lentivirus-based pHBLV-CMV-MCS-EF1-fluc-T2A-PURO vector to generate luciferase-expressing NCI-H1373-Luc cells. The eCT26 Kras^G12C^/G12CAbcb1^−^/^− (clone I20) and eCT26 Kras^G12D^/G12DAbcb1^−^/^− (clone I12) cell lines were engineered from the murine CT26 homozygous Kras^G12D tumor cell line (ATCC CRL-2638). All Kras^G12D alleles were replaced with Kras^G12C using CRISPR technology at Synthego. Additionally, the P-glycoprotein drug transporter, Abcb1a and Abcb1b, were knocked out using CRISPR guide sequences […] and […], respectively. The homozygous G12C mutation and the Abcb1 knockout were confirmed by Sanger sequencing in the clone selected and were used for in vivo experiments.
Female BALB/c immunocompetent mice and female NOD-SCID/IL2Rg(null; NSG) immune-deficient mice (6–8 weeks old) were purchased from the Jackson Laboratory and were acclimated at Revolution Medicines for 7 days before cell implantation. […] Treatments were initiated at the time of randomization when the average tumor volume reached 100 to 120 mm^3. The animals were assigned into groups using Studylog randomization software, performing stratified randomization based on their tumor volumes. […]

CCn1c(-c2cc(N3CCN(C)CC3)cnc2[C@H](C)OC)c2c3cc(ccc31)-c1csc(n1)C[C@H](NC(=O)[C@H]1C[C@@H]1C)C(=O)N1CCC[C@H](N1)C(=O)OCC(C)(C)C2 [RMC-6236]
pEC50 ([1]; NCI-H1373, NCIH1373, KRAS G12C, Lung, read-out: Proliferation Inhibition (EC50)): 8.28 | pEC50 ([1]; NCI-H1792, NCIH1792, KRAS G12C, Lung, read-out: Proliferation Inhibition (EC50)): 8.13 | pEC50 ([1]; NCI-H2009, NCIH2009, KRAS G12A, Lung, read-out: Proliferation Inhibition (EC50)): 7.71 | pEC50 ([1]; NCI-H2087, NCIH2087, NRAS Q61K, Lung, read-out: Proliferation Inhibition (EC50)): 8.40 | pEC50 ([1]; NCI-H2122, NCIH2122, KRAS G12C, Lung, read-out: Proliferation Inhibition (EC50)): 8.17 | pEC50 ([1]; NOZ, KRAS G12V, Liver/Bile duct, read-out: Proliferation Inhibition (EC50)): 7.48 | pEC50 ([1]; NRAS^Q61X cells, read-out: median EC50, cell growth inhibition): 7.66 | pEC50 ([1]; OVCAR-5, OVCAR5, KRAS G12V, Ovary, read-out: Proliferation Inhibition (EC50)): 8.70 | pEC50 ([1]; PANC-1, PANC1, KRAS G12D, Pancreas, read-out: Proliferation Inhibition (EC50)): 8.85 | pEC50 ([1]; PANC-03-27, PANC0327, KRAS G12V, Pancreas, read-out: Proliferation Inhibition (EC50)): 9.00 | pEC50 ([1]; PL45, PL45, KRAS G12D, Pancreas, read-out: Proliferation Inhibition (EC50)): 7.06 | pEC50 ([1]; Panc 05.04, PANC0504, KRAS G12D, Pancreas, read-out: Proliferation Inhibition (EC50)): 8.21 | pEC50 ([1]; Panc1005, PANC1005, KRAS G12D, Pancreas, read-out: Proliferation Inhibition (EC50)): 7.57 | pEC50 ([1]; RBE, KRAS G12V, Liver/Bile duct, read-out: Proliferation Inhibition (EC50)): 8.24 | pEC50 ([1]; RKO*, BRAF V600E, Intestine/Large/Colorectum, read-out: Proliferation Inhibition (EC50)): < 7.00 | pEC50 ([1]; SHP77, SHP77, KRAS G12V, Lung, read-out: Proliferation Inhibition (EC50)): < 7.00 | pEC50 ([1]; SK-CO-1, SKCO1, KRAS G12V, Intestine/Large/Colorectum, read-out: Proliferation Inhibition (EC50)): 8.52 | pEC50 ([1]; SK-LU-1, SKLU1, KRAS G12D, Lung, read-out: Proliferation Inhibition (EC50)): 8.22 | pEC50 ([1]; SK-MEL-2, SKMEL2, NRAS Q61R, Skin, read-out: Proliferation Inhibition (EC50)): 7.41 | pEC50 ([1]; SK-N-AS, SKNAS, NRAS Q61K, Brain and Nerves, read-out: Proliferation Inhibition (EC50)): 8.08 | pEC50 ([1]; SK-N-SH, SKNSH, NRAS Q61K, Brain and Nerves, read-out: Proliferation Inhibition (EC50)): < 7.00 | pEC50 ([1]; SNU1, SNU1, KRAS G12D, Stomach, read-out: Proliferation Inhibition (EC50)): 7.89 | pEC50 ([1]; SNU719, NRAS Q61L, Stomach, read-out: Proliferation Inhibition (EC50)): 7.49 | pEC50 ([1]; SNU-387, SNU387, NRAS Q61K, Liver, read-out: Proliferation Inhibition (EC50)): 8.04 | pEC50 ([1]; SNU-601, SNU601, KRAS G12D, Stomach, read-out: Proliferation Inhibition (EC50)): 7.58 | pEC50 ([1]; SNUC2A, KRAS G12D, Intestine/Large/Colorectum, read-out: Proliferation Inhibition (EC50)): < 7.00 | pEC50 ([1]; SU.86.86, SU8686, KRAS G12D, Pancreas, read-out: Proliferation Inhibition (EC50)): 7.69 | pEC50 ([1]; SW480, SW480, KRAS G12V, Intestine/Large/Colorectum, read-out: Proliferation Inhibition (EC50)): 8.29 | pEC50 ([1]; SW626, SW626, KRAS G12V, Ovary, read-out: Proliferation Inhibition (EC50)): 8.42 | pEC50 ([1]; SW756, SW756, KRAS G12C, Ovary, read-out: Proliferation Inhibition (EC50)): 7.57 | pEC50 ([1]; SW837, SW837, KRAS G12C, Intestine/Large/Colorectum, read-out: Proliferation Inhibition (EC50)): 7.73 | pEC50 ([1]; SW900, SW900, KRAS G12V, Lung, read-out: Proliferation Inhibition (EC50)): 8.51 | pEC50 ([1]; SW 1116, SW1116, KRAS G12A, Intestine/Large/Colorectum, read-out: Proliferation Inhibition (EC50)): 7.15 | pEC50 ([1]; SW1271, SW1271, NRAS Q61R, Lung, read-out: Proliferation Inhibition (EC50)): 8.34 | pEC50 ([1]; SW1463, SW1463, KRAS G12C, Intestine/Large/Colorectum, read-out: Proliferation Inhibition (EC50)): 7.69 | pEC50 ([1]; SW1573, SW1573, KRAS G12C, Lung, read-out: Proliferation Inhibition (EC50)): < 7.00 | pEC50 ([1]; SW1990, SW1990, KRAS G12D, Pancreas, read-out: Proliferation Inhibition (EC50)): 8.17 | pEC50 ([1]; SW-403, SW403, KRAS G12V, Intestine/Large/Colorectum, read-out: Proliferation Inhibition (EC50)): 8.46 | pEC50 ([1]; SW-620, SW620, KRAS G12V, Intestine/Large/Colorectum, read-out: Proliferation Inhibition (EC50)): 8.57 | pEC50 ([1]; UMUC3, UMUC3, KRAS G12C, Bladder, read-out: Proliferation Inhibition (EC50)): 8.59 | pEC50 ([1]; YCC2, KRAS G12S, Stomach, read-out: Proliferation Inhibition (EC50)): 7.64 | pEC50 ([1]; all three BRAF^V600E mutant cells, read-out: resistance to growth inhibition): < 7.00 | number of complete regressions per injected mice (mCR) [2]: 0/10
